Reference: article PMC10812672, “Short Antimicrobial Peptide Derived from the Venom Gland Transcriptome of Pamphobeteus verdolaga Increases Gentamicin Susceptibility of Multidrug-Resistant Klebsiella pneumoniae” (Antibiotics, 2023)
Ends that are not written are not given here.

Key:
[1] = tested on: S. aureus ATCC® 29213; assay type: cell-based, Staphylococcus aureus
Description: The nine AMPs identified in the initial screening were evaluated at concentrations between 1.56–200 µM, against E. coli ATCC® 25922, S. aureus ATCC® 29213, E. faecalis ATCC® 49532, P. aeruginosa ATCC® 9027, and K. pneumoniae ATCC® BAA-1705 (Supplementary Figures S2–S6). […] Only PvAMP66 and PvAMP172 reached the MBC for S. aureus at 50 µM and 100 µM, respectively (Table 2).
(§1) The evaluation of the antimicrobial activity of the peptides was conducted using the CLSI’s broth microdilution method for bacterial susceptibility testing. For the screening phase, peptides were evaluated at a single 30 μM concentration, in triplicate and in three independent assays, against the E. coli ATCC® 8739, E. coli ATCC® 25922, S. aureus ATCC® 6538, or S. aureus ATCC® 29213 reference USP and CLSI strains. For the determination of MIC, MBC, or IC50, peptides or antibiotics were evaluated in concentrations between 1.56–200 µM. These evaluations were conducted in triplicate and in three independent assays, against the E. coli ATCC® 25922, S. aureus ATCC® 29213, E. faecalis ATCC® 49532, P. aeruginosa ATCC® 9027, and K. pneumoniae ATCC® BAA-1705, or the clinically isolated MDR strain. In detail, 1 mL of a glycerol stock solution of the ATCC® or clinically isolated bacterial strain was added to 9 mL of Mueller-Hinton Broth and incubated for 18 h, 180 rpm and 37 °C (Incubator 1000, Heidolph Instruments, Schwabach, Germany). After the incubation, 1 mL of the previous solution was transferred to a new recipient containing 9 mL of fresh Mueller-Hinton broth and incubated for 4 h, 180 rpm and 37 °C (Incubator 1000, Heidolph Instruments, Schwabach, Germany). During the second incubation, the peptides or the antibiotics were dissolved in PBS pH 7.20 in concentrations between 19.53–2500 µM (MC5 Micro Balance, Sartorius AG, Göttingen, Germany). An amount of 10 µL of either peptide or antibiotic was dispensed in triplicate in 96-well flat bottom culture plates, along with 10 µL of PBS (Negative activity control), BTM-P1 (Positive activity control), or 10 µL of Mueller-Hinton broth (Blank); then, 110 µL of Mueller-Hinton broth was poured in all wells. Following this, the bacteria were suspended in Mueller-Hinton broth up to a concentration of approximately 1.50 × 10^8 CFU/mL, as measured by optical density at 600 nm between 0.06 to 0.11 (0.5 McFarland standard), in a Multiskan SkyHigh spectrophotometer (ThermoFisher Scientific, Waltham, MA, USA). Amounts of 5 µL of the 1.50 × 10^8 CFU/mL suspension were added to each well (except for the blank) for a final well concentration of approximately 6 × 10^6 CFU/mL. The plate was incubated for 24 h at 37 °C (BE 500, Memmert GmbH, Büchenbach, Germany) and optical density was measured at 600 nm in a Multiskan SkyHigh spectrophotometer (ThermoFisher Scientific, Waltham, MI, USA). Following the measurement of optical density, plates were visually inspected to determine the MIC. Subsequently, 100 µL of the concentration associated to the MIC and 100 µL of the next higher concentration were added to Petri dishes containing Mueller-Hinton Agar. The dishes were then incubated for 24 h at 37 °C (BE 500, Memmert GmbH, Büchenbach, Germany). After incubation, the Petri dishes were visually inspected, and the MBC was determined in the absence of growth. IC50 values were interpolated from regressions with correlation values above 0.70. Growth inhibition percentages were calculated as follows: Growth inhibition %=1−AbsPEPTIDE or ANTIBIOTIC−Median AbsBLANK/Median AbsPBS−Median AbsBLANK×100

[2] = tested on: E. coli ATCC® 25922; assay type: cell-based, Escherichia coli; details: CLSI broth microdilution, Mueller-Hinton broth, peptide 30 µM, ~6 × 10^6 CFU/mL, 24 h 37 °C, OD600; triplicate, three independent assays; NA = no activity
Description: (§2) Activity screening was conducted using the broth microdilution method at a fixed peptide concentration of 30 µM against E. coli ATCC® 8739 and 25922, as well as S. aureus ATCC® 6538 and 29213. The bacterial density used for screening was approximately 6 × 10^6 CFU/mL [30]. Peptide activity measurements were conducted in terms of the growth inhibition percentage. No dose-response curves were generated during the screening phase as a resource optimization strategy in the initial activity evaluation. […] For S. aureus ATCC® 6538 and S. aureus ATCC® 29213, growth inhibition ranged from 0% to 140% and 0% to 98%, respectively (Table 1).
as §1

[3] = tested on: E. coli ATCC® 8739; assay type: cell-based, Escherichia coli; details: CLSI broth microdilution, Mueller-Hinton broth, peptide 30 µM, ~6 × 10^6 CFU/mL, 24 h 37 °C, OD600; triplicate, three independent assays; NA = no activity
Description: as §2, §1

In the case of WKKIKKFF-NH2 [PvAMP66], the MIC ([1]; 1.56–200 µM, 24 h 37 °C, visual inspection, triplicate, three independent assays) is reported as 25 µM, the MBC ([1]; plating on Mueller-Hinton agar, absence of growth) is reported as 50 µM and the “E. coli ATCC® 25922 (Inhibition %)” value [2] is reported as 73.59 ± 21.83 %. The “E. coli ATCC® 8739 (Inhibition %)” value [3] was 88.81 ± 18.15 %.
